Test: Inhibitory concentration to antagonise cation efflux in nAChR subtype human alpha3betaX, expressed in IMR-32 cells

SMILES | IC50
CCCc1cncc(OC[C@@H]2CCCN2C)c1 [3-((S)-1-Methyl-pyrrolidin-2-ylmethoxy)-5-propyl-pyridine] | 3.2 µM
CCCCc1cncc(OC[C@@H]2CCCN2C)c1 [3-Butyl-5-((S)-1-methyl-pyrrolidin-2-ylmethoxy)-pyridine] | 5 µM

Reference: BindingDB's records for doi:10.1016/s0960-894x(98)00019-5 (Abbott Laboratories, 1999)
